Experimental data published in PMC12152147, “DDB1 engagement defines the selectivity of S656 analogs for cyclin K degradation over CDK inhibition” (EMBO Reports, 2025).
Values joined by “and” are separate entries in the source; they are usually repeats but may differ in a detail not shown here. Equal entries are not always repeated. Where two headings read alike, the source gives them in different places.

Experiments:
primary AML specimens = test: Dose-response assays in primary AML specimens (6 days, CellTiterGlo); format: cell-based, human; conditions: Homo sapiens, 144 h, 6 days, read-out: IC50
In short: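 Primary AML cells in IMDM/15% BIT with SCF, FLT3L, IL3, G-CSF, SR1 and UM729 were exposed to 8-point 1:4 dilutions (10 μM to 0.5 nM) for 6 days. Viability came from CellTiterGlo luminescence, with % inhibition versus DMSO (0.1%) fitted by nonlinear regression.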

cyclin KeGFP = test: Cyclin KeGFP reporter system (eGFP/mCherry MFI by flow cytometry); format: cell-based, H. sapiens; conditions: OCI-AML5 G7 clone, 3 h, 10 μM; normalized to DMSO (=100)
In short: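 Degradation read as eGFP-to-mCherry MFI ratio relative to DMSO controls, from flow cytometry of the selected G7 clone of OCI-AML5 cells transduced with the cyclin KeGFP reporter.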

CDK12/Cyclin K = target: T1, CDK12/Cyclin K (Homo sapiens, UniProt Q9NYV4); test: CDK12/CyclinK in vitro kinase assay (BPS kit, Kinase Glo MAX); format: biochemical; conditions: for in vitro inhibition of CDK12/Cyclin K activity: in % (unit assumed)
T1 construct: purchased BPS Bioscience 78298
T1 sequence (Q9NYV4 whole entry): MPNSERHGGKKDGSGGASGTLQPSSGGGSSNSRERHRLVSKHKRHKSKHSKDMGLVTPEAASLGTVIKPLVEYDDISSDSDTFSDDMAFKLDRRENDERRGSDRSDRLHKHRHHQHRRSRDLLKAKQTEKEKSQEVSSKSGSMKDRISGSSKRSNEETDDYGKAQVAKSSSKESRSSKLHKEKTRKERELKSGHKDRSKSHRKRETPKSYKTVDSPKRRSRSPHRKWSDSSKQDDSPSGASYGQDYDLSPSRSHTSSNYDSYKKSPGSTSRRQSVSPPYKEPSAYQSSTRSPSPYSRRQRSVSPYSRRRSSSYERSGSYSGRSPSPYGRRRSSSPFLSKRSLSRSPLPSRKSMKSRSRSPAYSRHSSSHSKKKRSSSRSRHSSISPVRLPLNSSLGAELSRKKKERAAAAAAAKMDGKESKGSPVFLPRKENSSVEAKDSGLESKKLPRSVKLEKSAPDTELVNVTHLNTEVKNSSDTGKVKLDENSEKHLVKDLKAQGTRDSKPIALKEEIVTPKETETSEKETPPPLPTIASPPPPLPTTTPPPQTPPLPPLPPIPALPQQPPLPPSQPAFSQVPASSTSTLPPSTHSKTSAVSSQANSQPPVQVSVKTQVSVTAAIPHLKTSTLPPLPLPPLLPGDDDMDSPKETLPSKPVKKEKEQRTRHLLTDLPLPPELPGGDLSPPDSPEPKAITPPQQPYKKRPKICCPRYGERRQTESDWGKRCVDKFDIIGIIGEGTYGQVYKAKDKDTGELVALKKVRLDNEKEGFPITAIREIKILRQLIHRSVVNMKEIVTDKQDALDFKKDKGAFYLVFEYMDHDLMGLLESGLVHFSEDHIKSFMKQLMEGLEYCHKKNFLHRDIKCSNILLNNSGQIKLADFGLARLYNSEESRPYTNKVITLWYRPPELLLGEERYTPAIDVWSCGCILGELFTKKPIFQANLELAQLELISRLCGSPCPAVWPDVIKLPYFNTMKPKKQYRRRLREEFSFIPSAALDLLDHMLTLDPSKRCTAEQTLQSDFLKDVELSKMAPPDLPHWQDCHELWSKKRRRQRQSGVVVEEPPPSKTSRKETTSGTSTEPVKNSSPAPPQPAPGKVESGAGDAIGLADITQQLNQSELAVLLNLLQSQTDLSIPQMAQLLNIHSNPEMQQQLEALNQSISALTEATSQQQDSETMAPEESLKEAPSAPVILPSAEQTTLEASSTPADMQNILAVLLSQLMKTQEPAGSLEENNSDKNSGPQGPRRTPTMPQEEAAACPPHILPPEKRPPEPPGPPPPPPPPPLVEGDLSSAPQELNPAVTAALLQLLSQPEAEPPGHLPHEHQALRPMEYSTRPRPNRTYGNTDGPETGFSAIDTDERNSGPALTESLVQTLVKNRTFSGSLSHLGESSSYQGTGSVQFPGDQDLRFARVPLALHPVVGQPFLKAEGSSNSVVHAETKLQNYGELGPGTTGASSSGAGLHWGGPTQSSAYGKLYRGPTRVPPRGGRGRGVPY
T1 sequence (O75909 whole entry partner): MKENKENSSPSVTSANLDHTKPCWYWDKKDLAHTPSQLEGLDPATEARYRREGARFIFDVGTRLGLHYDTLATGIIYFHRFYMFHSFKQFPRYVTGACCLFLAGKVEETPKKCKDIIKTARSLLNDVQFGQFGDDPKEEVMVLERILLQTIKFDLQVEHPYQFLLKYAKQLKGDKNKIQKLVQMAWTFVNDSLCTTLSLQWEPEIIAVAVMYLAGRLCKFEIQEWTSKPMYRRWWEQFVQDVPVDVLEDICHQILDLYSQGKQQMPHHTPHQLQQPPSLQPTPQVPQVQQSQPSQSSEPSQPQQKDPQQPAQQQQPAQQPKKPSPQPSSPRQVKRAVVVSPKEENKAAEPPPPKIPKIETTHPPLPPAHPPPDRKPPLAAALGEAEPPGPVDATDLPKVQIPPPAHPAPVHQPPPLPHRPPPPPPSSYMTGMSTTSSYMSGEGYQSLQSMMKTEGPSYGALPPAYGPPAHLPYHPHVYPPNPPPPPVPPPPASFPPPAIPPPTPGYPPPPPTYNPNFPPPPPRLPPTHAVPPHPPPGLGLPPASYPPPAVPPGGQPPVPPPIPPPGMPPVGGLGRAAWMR
Protocol: Kinase activity was assessed using the kinase assay kits from BPS Bioscience for CDK1, CDK9 and CDK12 with Kinase Glo MAX in duplicates. Compounds were tested at a single concentration of 1 μM for CDK1 and CDK9 activity, and in a dilution ranging from 0.64 nM to 50 μM for CDK12 activity. Chemiluminescence was read using the Neo Synergy BioTek plate reader.

[1] = tested on: OCI-AML5 cells expressing shRNA targeting CUL4A or CUL4B; test: Dose response in OCI-AML5 expressing shRNAs targeting CUL4A, CUL4B or control; format: cell-based, H. sapiens; conditions: OCI-AML5, 4 days

For CN(C)C/C=C/C(=O)Nc1ccc(C(=O)N2CCC[C@@H](Nc3ncc(Cl)c(-c4c[nH]c5ccccc45)n3)C2)cc1 [THZ531], the IC50 (primary AML specimens; primary AML specimen 03H109) was 48.9 nM, the IC50 (primary AML specimens; primary AML specimen 04H055) was 45.2 nM and the IC50 (primary AML specimens; primary AML specimen 04H096) was 44.4 nM. The IC50 (primary AML specimens; primary AML specimen 04H138) was 70.6 nM, the IC50 (primary AML specimens; primary AML specimen 05H113) was 70.4 nM and the IC50 (primary AML specimens; primary AML specimen 05H149) was 411 nM. It also gave an IC50 (primary AML specimens; primary AML specimen 05H193) of 73.1 nM, an IC50 (primary AML specimens; primary AML specimen 06H088) of 50 nM and an IC50 (primary AML specimens; primary AML specimen 06H117) of 42.8 nM. For the same molecule, the IC50 (primary AML specimens; primary AML specimen 06H151) was 103 nM, the IC50 (primary AML specimens; primary AML specimen 07H003) was 49.5 nM and the IC50 (primary AML specimens; primary AML specimen 07H131) was 734 nM. The IC50 (primary AML specimens; primary AML specimen 07H144) was 53.8 nM, the IC50 (primary AML specimens; primary AML specimen 07H155) was 125 nM and the IC50 (primary AML specimens; primary AML specimen 08H018) was 292 nM. It also gave an IC50 (primary AML specimens; primary AML specimen 08H021) of 27.7 nM, an IC50 (primary AML specimens; primary AML specimen 08H056) of 170 nM and an IC50 (primary AML specimens; primary AML specimen 08H063) of 67.2 nM. The IC50 (primary AML specimens; primary AML specimen 08H085) was 42.1 nM, the IC50 (primary AML specimens; primary AML specimen 08H108) was 48.5 nM and the IC50 (primary AML specimens; primary AML specimen 08H118) was 596 nM. It also gave an IC50 (primary AML specimens; primary AML specimen 09H016) of 121 nM, an IC50 (primary AML specimens; primary AML specimen 09H070) of 155 nM and an IC50 (primary AML specimens; primary AML specimen 10H014) of 237 nM. For the same molecule, the IC50 (primary AML specimens; primary AML specimen 10H046) was 319 nM, the IC50 (primary AML specimens; primary AML specimen 10H107) was 164 nM and the IC50 (primary AML specimens; primary AML specimen 10H127) was 48.2 nM. For the same molecule, the IC50 (primary AML specimens; primary AML specimen 10H161) was 46.6 nM, the IC50 (primary AML specimens; primary AML specimen 10H174) was 146 nM and the IC50 (primary AML specimens; primary AML specimen 11H008) was 47.1 nM. For the same molecule, the IC50 (primary AML specimens; primary AML specimen 11H019) was 174 nM, the IC50 (primary AML specimens; primary AML specimen 11H170) was 798 nM and the IC50 (primary AML specimens; primary AML specimen 11H217) was 46.2 nM. For the same molecule, the IC50 (primary AML specimens; primary AML specimen 11H232) was 296 nM, the IC50 (primary AML specimens; primary AML specimen 12H033) was 127 nM and the IC50 (primary AML specimens; primary AML specimen 12H055) was 51.7 nM. The IC50 (primary AML specimens; primary AML specimen 12H148) was 242 nM, the IC50 (primary AML specimens; primary AML specimen 13H053) was 160 nM and the IC50 (primary AML specimens; primary AML specimen 15H045) was 273 nM. The IC50 (primary AML specimens; primary AML specimen 17H065) was 1080 nM, the “MFI of cyclin KeGFP over mCherry” value (cyclin KeGFP) was 103.0 and 93.3 and 92.2 and 93.5 and the “in vitro inhibition of CDK12/Cyclin K activity” value (CDK12/Cyclin K; Log10 (uM) 0.30103) was 95.76 and 74.16 and 142.36. The “in vitro inhibition of CDK12/Cyclin K activity” value (CDK12/Cyclin K; Log10 (uM) -1.09691) was 64.02 and 71.5 and 108.97, the “in vitro inhibition of CDK12/Cyclin K activity” value (CDK12/Cyclin K; Log10 (uM) -1.79588) was 50.36 and 51.42 and 41.9 and the “in vitro inhibition of CDK12/Cyclin K activity” value (CDK12/Cyclin K; Log10 (uM) -2.49485) was 37.5 and 37.15 and 28.34. For the same molecule, the IC50 (CDK12/Cyclin K; read-out: IC50, in vitro inhibition of CDK12/Cyclin K activity) was 29 nM and the “potency upon CUL4A or CUL4B downregulation (for SNS-032, THZ531 also DDB1 depletion)” value [1] was “remained unaffected”.
